PubChem BioAssay (NCI)
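Compound exposure: 48 hours, 5 concentrations, 96-well plates. TGI marks complete inhibition of growth.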

Experiments:
Test in all cases: NCI tumour cell line growth inhibition, 48 h
NCI-H522 lung = test system: NCI-H522 lung
SNB-19 CNS = test system: SNB-19 CNS
SR leukemia = test system: SR leukemia
MCF7 breast = test system: MCF7 breast
IGROV1 ovarian = test system: IGROV1 ovarian
HCC-2998 colon = test system: HCC-2998 colon
TK-10 renal = test system: TK-10 renal
SK-MEL-5 melanoma = test system: SK-MEL-5 melanoma
U251 CNS = test system: U251 CNS
KM12 colon = test system: KM12 colon
NCI/ADR-RES ovarian = test system: NCI/ADR-RES ovarian
K-562 leukemia = test system: K-562 leukemia
HOP-92 NSCLC = test system: HOP-92 NSCLC
OVCAR-4 ovarian = test system: OVCAR-4 ovarian
MDA-N = test system: MDA-N
DU-145 prostate = test system: DU-145 prostate
MALME-3M melanoma = test system: MALME-3M melanoma
SF-268 CNS = test system: SF-268 CNS
UACC-257 melanoma = test system: UACC-257 melanoma
OVCAR-3 ovarian = test system: OVCAR-3 ovarian
OVCAR-5 ovarian = test system: OVCAR-5 ovarian
OVCAR-8 ovarian = test system: OVCAR-8 ovarian
NCI-H460 lung = test system: NCI-H460 lung
MDA-MB-231 breast = test system: MDA-MB-231 breast
COLO 205 colon = test system: COLO 205 colon
786-0 renal = test system: 786-0 renal
LOX IMVI melanoma = test system: LOX IMVI melanoma
BT-549 breast = test system: BT-549 breast
NCI-H226 lung = test system: NCI-H226 lung
M14 melanoma = test system: M14 melanoma
T-47D breast = test system: T-47D breast
HL-60(TB) leukemia = test system: HL-60(TB) leukemia
CAKI-1 renal = test system: CAKI-1 renal
PC-3 prostate = test system: PC-3 prostate
SF-539 CNS = test system: SF-539 CNS
A549 NSCLC = test system: A549 NSCLC
SK-OV-3 ovarian = test system: SK-OV-3 ovarian
SW-620 colon = test system: SW-620 colon
HOP-62 NSCLC = test system: HOP-62 NSCLC
NCI-H23 lung = test system: NCI-H23 lung
HS 578T breast = test system: HS 578T breast
RPMI-8226 leukemia = test system: RPMI-8226 leukemia
RXF 393 renal = test system: RXF 393 renal
MDA-MB-435 = test system: MDA-MB-435
MOLT-4 leukemia = test system: MOLT-4 leukemia
SK-MEL-28 melanoma = test system: SK-MEL-28 melanoma
CCRF-CEM leukemia = test system: CCRF-CEM leukemia
HCT-116 colon = test system: HCT-116 colon
ACHN renal = test system: ACHN renal
UACC-62 melanoma = test system: UACC-62 melanoma
EKVX NSCLC = test system: EKVX NSCLC
A498 renal = test system: A498 renal
SN12C renal = test system: SN12C renal
HCT-15 colon = test system: HCT-15 colon
SK-MEL-2 melanoma = test system: SK-MEL-2 melanoma
SF-295 CNS = test system: SF-295 CNS
HT29 colon = test system: HT29 colon
UO-31 renal = test system: UO-31 renal

## O=C1c2ccc3cc(CCl)cc(O)c3c2C(=O)c2cccc(O)c21
NCI-H522 lung
  TGI: > 10 µM
SNB-19 CNS
  TGI: > 10 µM
SR leukemia
  TGI: > 10 µM
MCF7 breast
  TGI: 2.72 µM
IGROV1 ovarian
  TGI: > 10 µM
HCC-2998 colon
  TGI: > 10 µM
TK-10 renal
  TGI: > 10 µM
SK-MEL-5 melanoma
  TGI: 1.98 µM
U251 CNS
  TGI: > 10 µM
KM12 colon
  TGI: > 10 µM
NCI/ADR-RES ovarian
  TGI: 5.67 µM
K-562 leukemia
  TGI: > 10 µM
HOP-92 NSCLC
  TGI: > 10 µM
OVCAR-4 ovarian
  TGI: > 10 µM
MDA-N
  TGI: 0.314 µM
DU-145 prostate
  TGI: > 10 µM
MALME-3M melanoma
  TGI: 0.0669 µM
SF-268 CNS
  TGI: 9.18 µM
UACC-257 melanoma
  TGI: 3.04 µM
OVCAR-3 ovarian
  TGI: 0.407 µM
OVCAR-5 ovarian
  TGI: > 10 µM
OVCAR-8 ovarian
  TGI: 5.03 µM
NCI-H460 lung
  TGI: > 10 µM
MDA-MB-231 breast
  TGI: 3.16 µM
COLO 205 colon
  TGI: 4.11 µM
786-0 renal
  TGI: > 10 µM
LOX IMVI melanoma
  TGI: > 10 µM
BT-549 breast
  TGI: > 10 µM
NCI-H226 lung
  TGI: > 10 µM
M14 melanoma
  TGI: 2.45 µM
T-47D breast
  TGI: > 10 µM
HL-60(TB) leukemia
  TGI: 1.61 µM
CAKI-1 renal
  TGI: > 10 µM
PC-3 prostate
  TGI: > 10 µM
SF-539 CNS
  TGI: 6.42 µM
A549 NSCLC
  TGI: > 10 µM
SK-OV-3 ovarian
  TGI: > 10 µM
SW-620 colon
  TGI: 1 µM
HOP-62 NSCLC
  TGI: > 10 µM
NCI-H23 lung
  TGI: > 10 µM
HS 578T breast
  TGI: > 10 µM
RPMI-8226 leukemia
  TGI: > 10 µM
RXF 393 renal
  TGI: 9.83 µM
MDA-MB-435
  TGI: 0.324 µM
MOLT-4 leukemia
  TGI: 6.75 µM
SK-MEL-28 melanoma
  TGI: 8.27 µM
CCRF-CEM leukemia
  TGI: 5.16 µM
HCT-116 colon
  TGI: 4.18 µM
ACHN renal
  TGI: 7.4 µM
UACC-62 melanoma
  TGI: 3.85 µM
EKVX NSCLC
  TGI: > 10 µM
A498 renal
  TGI: > 10 µM
SN12C renal
  TGI: 7.26 µM
HCT-15 colon
  TGI: > 10 µM
SK-MEL-2 melanoma
  TGI: > 10 µM
SF-295 CNS
  TGI: > 10 µM

## CC(C)(C)C(=O)CC1(O)C=C(O)C(O)(CC(=O)C(C)(C)C)O1 (configuration not stated)
NCI-H522 lung
  TGI: 80 µM
SNB-19 CNS
  TGI: > 100 µM
SR leukemia
  TGI: > 100 µM
MCF7 breast
  TGI: > 100 µM
IGROV1 ovarian
  TGI: 55.2 µM
HCC-2998 colon
  TGI: > 100 µM
TK-10 renal
  TGI: > 100 µM
SK-MEL-5 melanoma
  TGI: > 100 µM
U251 CNS
  TGI: > 100 µM
KM12 colon
  TGI: > 100 µM
NCI/ADR-RES ovarian
  TGI: > 100 µM
K-562 leukemia
  TGI: > 100 µM
HOP-92 NSCLC
  TGI: > 100 µM
OVCAR-4 ovarian
  TGI: 64.1 µM
MDA-N
  TGI: > 100 µM
DU-145 prostate
  TGI: > 100 µM
MALME-3M melanoma
  TGI: > 100 µM
SF-268 CNS
  TGI: > 100 µM
UACC-257 melanoma
  TGI: > 100 µM
OVCAR-3 ovarian
  TGI: > 100 µM
OVCAR-5 ovarian
  TGI: > 100 µM
OVCAR-8 ovarian
  TGI: > 100 µM
NCI-H460 lung
  TGI: > 100 µM
MDA-MB-231 breast
  TGI: > 100 µM
COLO 205 colon
  TGI: > 100 µM
786-0 renal
  TGI: 34.5 µM
LOX IMVI melanoma
  TGI: > 100 µM
BT-549 breast
  TGI: > 100 µM
NCI-H226 lung
  TGI: 56.6 µM
M14 melanoma
  TGI: 51.1 µM
T-47D breast
  TGI: > 100 µM
HL-60(TB) leukemia
  TGI: 72.1 µM
CAKI-1 renal
  TGI: 67.6 µM
PC-3 prostate
  TGI: > 100 µM
SF-539 CNS
  TGI: 90.2 µM
HT29 colon
  TGI: > 100 µM
A549 NSCLC
  TGI: > 100 µM
SK-OV-3 ovarian
  TGI: > 100 µM
HOP-62 NSCLC
  TGI: 64.7 µM
NCI-H23 lung
  TGI: 88.7 µM
HS 578T breast
  TGI: > 100 µM
RPMI-8226 leukemia
  TGI: 69.7 µM
RXF 393 renal
  TGI: 45.1 µM
MDA-MB-435
  TGI: > 100 µM
UO-31 renal
  TGI: > 100 µM
MOLT-4 leukemia
  TGI: > 100 µM
SK-MEL-28 melanoma
  TGI: > 100 µM
CCRF-CEM leukemia
  TGI: > 100 µM
HCT-116 colon
  TGI: 55.3 µM
UACC-62 melanoma
  TGI: 97.1 µM
EKVX NSCLC
  TGI: > 100 µM
A498 renal
  TGI: > 100 µM
SN12C renal
  TGI: > 100 µM
HCT-15 colon
  TGI: > 100 µM
SK-MEL-2 melanoma
  TGI: > 100 µM
SF-295 CNS
  TGI: > 100 µM
